{"source": "patent US20100292200A1", "about": "“Methods for Modulating Apoptosis in Platelets” (The Walter and Eliza Hall Institute of Medical Research, priority 2006, published 2010)", "key": {"[1]": {"tested_on": "human platelet rich plasma", "assay": "Platelet aggregometry on human platelet rich plasma", "format": "cell-based", "method": "Platelet aggregometry performed on human platelet rich plasma (250×10^9/L platelets) pre-incubated for 1 h with 1 μM ABT-737 (green line) or not (red) before stimulation with (A) collagen (4 μg/ml) or (B) ADP (10 μM).\nWhole blood was collected in sodium citrate (3.2%) and platelet rich plasma obtained by centrifugation at 800 rpm for 12 min at room temperature. Platelet poor plasma was then obtained by centrifugation of remaining blood at 3,000 rpm for 15 min at room temperature. Platelet count was adjusted to 250×10^9/L using platelet poor plasma. Diluted platelet rich plasma was placed in an aggregometer cuvette warmed to 37° C. and stirred whilst light transmission through the plasma was measured in a 4 channel platelet aggregometer. After baseline measurements were obtained, ADP or Collagen (both from Edward Keller) was added to induce aggregation."}, "platelets": {"tested_on": "platelets", "assay": "ABT-737 administration to mice, peripheral blood platelet counts", "format": "in vivo, mouse", "method": "Animals were bled 2-24 h afterwards and platelet counts determined. […] Platelet counts (blue symbols; left axis) were determined 2-96 h after a single dose of ABT-737 (red arrow). […] Orange symbols represent serum TPO levels (right axis). […] Platelet counts were determined before and 8 h after a single dose of ABT-737 (red arrows) given at weekly intervals. […] (E) Synchronizing platelets. […] Wild type C57BL/6 mice were treated with APS, and then injected with ABT-737 (red arrows) either 2 or 7 days afterwards. Absolute platelet counts and the % of reticulated platelets were measured. The top panels show representative flow cytometric profiles following thiazole orange staining before or after ABT-737 injections. The bottom panels show platelet counts prior to or 2 h post ABT-737 injection. Data in (B), (C), (E) and (F) represent means±SD of 3-6 mice at each time point. […]\n(§1) The hematocrit, platelet and white cell count, and differential were determined by using either manual or automated (Advia 120) counting techniques. In most experiments, with the exception of data shown in FIGS. 1A and 6E, the data was collected from male mice. Clonal cultures of 2.5×10^4 adult bone marrow cells or 5×10^4 spleen cells in 1 mL of 0.3% agar in DMEM supplemented with newborn calf serum (20%) were stimulated with a mixture of 100 ng/mL murine stem cell factor, 10 ng/mL murine IL-3, 4 units/mL human EPO and incubated for 7 days at 37° C. in a fully humidified atmosphere of 10% CO2 in air. Agar cultures were fixed, sequentially stained for acetylcholinesterase, Luxol fast blue and hematoxylin; the cellular composition of each colony determined at ×100-400 magnification. Megakaryocyte counts were performed by manual counting from sections of sternum and spleen after staining with hematoxylin/eosin. A minimum of 10 high-power fields (×200) were scored.\nMice were injected intra-peritoneally with 75 mg/kg of ABT-737 given as a single dose or daily. A stock solution of ABT-737 (1 g/mL in DMSO) was diluted in a mixture of 30% propylene glycol, 5% Tween 80, 65% D5W (5% dextrose in water), pH 4-5; the final concentration of DMSO was less than 1%."}, "[2]": {"tested_on": "cells from the bone marrow of C57BL/6 mice", "assay": "formation of hematopoietic progenitors in vitro (soft agar colony cultures)", "format": "cell-based, mouse", "method": "Cells (25,000) from the bone marrow of C57BL/6 mice were cultured in soft agar with G-CSF, IL-3 and EPO for 7 r d, stained and counted. Saline or ABT-737 was added on days 1, 3 and 5. […] G, granulocyte colony; GM, granulocyte/macrophage colony; M, macrophage colony; EO, eosinophil colony; Meg, megakaryocyte colony. Total colony counts are the means of two cultures; megakaryocyte colony counts represent the means±SD of four indepdendent cultures.\nas §1"}, "human platelets": {"tested_on": "human platelets", "conditions": "1 μM for 1 or 2 h", "experimental": "Human whole blood was obtained with informed consent (approved by the Institutional Review Board), Platelet rich plasma was obtained and incubated at room temperature with drug or control for up to 2 h. Platelets were counted manually in triplicate using a hemacytometer."}, "[3]": {"tested_on": "tumor cell lines derived from small cell lung cancers or lymphomas", "conditions": "small cell lung cancer or lymphoma derived lines; Oltersdorf et al., 2005; cited from earlier work"}, "serum TPO levels": {"tested_on": "serum TPO levels", "assay": "Thrombopoietin analysis (serum TPO ELISA) in ABT-737 treated mice", "format": "in vivo, mouse", "conditions": "after ABT-737", "method": "Animals were bled 2-24 h afterwards and platelet counts determined. […] (B) Platelet recovery after a single dose of ABT-737. Platelet counts (blue symbols; left axis) were determined 2-96 h after a single dose of ABT-737 (red arrow). […] Orange symbols represent serum TPO levels (right axis). (C) Cyclical acute thrombocytopaenia triggered by ABT-737. Platelet counts were determined before and 8 h after a single dose of ABT-737 (red arrows) given at weekly intervals. […] During recovery, baseline counts drifted upwards. (D) ABT-737 acts selectively on aged platelets. […] (E) Synchronizing platelets. […] During recovery, the newly synthesized younger platelets are larger as indicated by the increased mean platelet volume (blue symbols; right axis). (F) Young platelets are resistant to ABT-737. Wild type C57BL/6 mice were treated with APS, and then injected with ABT-737 (red arrows) either 2 or 7 days afterwards. Absolute platelet counts and the % of reticulated platelets were measured. […]\nBlood was collected from the retroorbital sinus using a non-heparinized capillary tube into an eppendorf tube and incubated at room temperature for 2 h. […] Thrombopoietin levels were measured by enzyme-linked immunosorbent assay (ELISA) using the Quantikine Mouse TPO Immunoassay kit (R&D Systems) according to the manufacturer's instructions."}, "[4]": {"conditions": "mouse, in vivo; cited from earlier work"}, "[5]": {"conditions": "ABT-737 1 μM added on days 1, 3 and 5, 25,000 bone marrow cells, 7 d, mean of two cultures"}, "[6]": {"conditions": "progenitor cell cultures in vitro"}}, "note": "“Also recorded” adds a separate entry of the source.", "data": [{"smiles": "CN(C)CC[C@H](CSc1ccccc1)Nc1ccc(S(=O)(=O)NC(=O)c2ccc(N3CCN(Cc4ccccc4-c4ccc(Cl)cc4)CC3)cc2)cc1[N+](=O)[O-]", "note": "[ABT-737]", "values": [{"measurement": "responses to other agonists (Epinephrine, Arachidonic Acid, Ristocetin)", "setting": "[1]; 1 μM ABT-737 (data not shown)", "result": "did not alter responses"}, {"measurement": "platelet activation / aggregation in response to collagen or ADP", "setting": "[1]; pre-incubated 1 h with 1 μM ABT-737, collagen 4 μg/ml or ADP 10 μM", "result": "did not trigger platelet activation or adversely impact upon the ability of platelets to aggregate; also recorded: did not induce platelet aggregation or affect that with agonists"}, {"measurement": "effect of ABT-737 on newly synthesized young platelets", "setting": "platelets; ABT-737 injected 2 days post-APS, counts 2 h post injection", "result": "highly resistant"}, {"measurement": "effect of ABT-737 on aged platelets", "setting": "platelets; ABT-737 injected 7 days post APS, counts 2 h post injection", "result": "susceptible"}, {"measurement": "effect of ABT-737 on platelets in Bak^-/- Bax^+/- mice", "setting": "platelets; Bak^-/- Bax^+/- mice, single dose 75 mg/kg, 0-24 h, 75 mg/kg", "result": "entirely refractory; also recorded: enthely refractory; also recorded: completely protected"}, {"measurement": "effect of ABT-737 on platelet counts in Bak^-/- mice", "setting": "platelets; Bak^-/- mice, single dose 75 mg/kg, 0-24 h, 75 mg/kg", "result": "significantly buffered; also recorded: unaffected by ABT-737 at early time points (up to 4 h)"}, {"measurement": "impact of loss of Bax alone on the effect of ABT-737", "setting": "platelets; Bax-deficient mice (data not shown)", "result": "little impact"}, {"measurement": "ABT-737-induced thrombocytopaenia in Bcl-x^+/- mice", "setting": "platelets; Bcl-x^+/- vs wild type and Bcl-2^+/- mice, single dose 75 mg/kg, 2-24 h, 75 mg/kg", "result": "exacerbates"}, {"measurement": "platelet levels during continued daily ABT-737", "setting": "platelets; daily injections continued for 14 days", "result": "60-70 % of normal"}, {"measurement": "platelet counts with weekly ABT-737", "setting": "platelets; single dose given at weekly intervals, counts before and 8 h after", "result": "acute thrombocytopaenia ensued in a cyclical manner; also recorded: comparable drop in platelets each time"}, {"measurement": "dose dependence of thrombocytopaenia", "setting": "platelets; wild type C57BL/6 mice (data not shown)", "result": "dose dependent"}, {"measurement": "platelet counts after recovery from a single dose", "setting": "platelets; wild type C57BL/6 mice, 2-96 h after a single dose", "result": "rebound thrombocytosis by day 4"}, {"measurement": "time for platelet counts to recover to normal levels", "setting": "platelets; wild type C57BL/6 mice, after a single dose", "result": "≤ 3", "unit": "days"}, {"measurement": "Blast colonies", "setting": "[2]; [5]", "result": 16}, {"measurement": "Eo, eosinophil colony", "setting": "[2]; [5]", "result": 1}, {"measurement": "G, granulocyte colony", "setting": "[2]; [5]", "result": 14}, {"measurement": "GM, granulocyte/macrophage colony", "setting": "[2]; [5]", "result": 6}, {"measurement": "M, macrophage colony", "setting": "[2]; [5]", "result": 14}, {"measurement": "Meg, megakaryocyte colony", "setting": "[2]; ABT-737 1 μM added on days 1, 3 and 5, 25,000 bone marrow cells, 7 d, means±SD of four independent cultures", "result": "14 ± 6"}, {"measurement": "effect on formation of other colonies", "setting": "[2]; [6]", "result": "unaffected"}, {"measurement": "effect on megakaryocyte colony formation", "setting": "[2]; [6]", "result": "no effect; also recorded: minor effect"}, {"measurement": "susceptibility of human platelets to ABT-737", "setting": "human platelets", "result": "caspase-dependent susceptibility"}, {"measurement": "efficacy against tumor cell lines", "setting": "[3]", "result": "single agent efficacy"}, {"measurement": "TPO levels in ABT-737 treated mice", "setting": "serum TPO levels", "result": "sustained production; also recorded: normal, or probably even elevated"}, {"measurement": "tolerability in mice", "setting": "[4]", "result": "well-tolerated"}]}]}
